The test system of experiment [1] is maximal electroshock-induced seizures (MES). The experiment can be described thus: maximal electroshock-induced seizures (MES) test in mice. The class given is in vivo. The settings on record: Mus musculus. The procedure: The compounds of the present invention may be tested for in vivo anticonvulsant activity after iv. po or ip injection using a number of anticonvulsant tests in mice (audiogenic seizure model in DBA-2 mice, pentylenetetrazol-induced seizures in mice, maximum electroshock seizure test (MES)).
The ability of 1-[4-(4-fluorophenoxy)benzyl]semicarbazide to block maximal electroshock-induced seizures (MES) was determined by the following procedure.
Seizures were induced by application of current (50 mA, 60 pulses/sec, 0.8 msec pulse width, 1 sec duration, D.C.) using a Ugo Basile ECT device (model 7801). Mice were restrained by gripping the loose skin on their dorsal surface and saline-coated corneal electrodes were held lightly against the two cornea. […] A tonic seizure was defined as a hindlimb extension in excess of 90 degrees from plane of the body.
1-[4-(4-Fluorophenoxy)benzyl]semicarbazide was administered iv to mice 10 min before the test procedure.
A general note: In the maximal electroshock model the usual endpoint is tonic extension of the hind limbs.

In the next experiment the target is T1, hSkM1 sodium channels (Homo sapiens, UniProt P35499).
T1 construct: expressed in transfected cells
The experiment can be described thus: Electrophysiological assay: whole-cell patch-clamp recordings of voltage-gated Na+ currents in HEK-293 cells stably expressing hSkM1. Type of experiment: cell-based. The procedure:
Electrophysiological Assay:
Cellpreparation: HEK-293 cells stably expressing the hSkM1 isoform of Na^+ channels (generous gift from Dr. A. L. George, Vanderbilt University Medical School) were cultured using standard techniques, as described previously (Verdoorn, T. A, et al., Neuron 4:919-928 (1990)). For electrophysiology, cells were plated onto 35 mm Petri dishes (pre-coated with poly-D-lysine) at a density of 1:40 on the day of re-seeding from confluent cultures. Cells are suitable for recordings for 2-3 days after plating.
Patch-clamp recordings of voltage-sensitive Na^+ currents: Whole-cell voltage-clamp recordings were made using conventional patch-clamp techniques (Hamill et al, Pfluegers Arch. 391:85-100 (1981)) with an Axopatch 200 A amplifier (Axon Instruments, Foster City, Calif.). Recordings were made within 2-3 hours after neuron dissociation. The recording chamber was continuously superfused with the external solution (150 mM NaCl, 5.4 mM KCl, 1.8 mM CaCl2, 1 mM MgCl2, 10 mM HEPES, 10 mM glucose, pH 7.4 (NaOH)) at a speed of about 1 ml/min. Recording pipettes were pulled from thick-walled capillaries (WPI, Sarasota, Fla.) and fire-polished. The pipette resistances ranged from 1 to 3 M.OMEGA. when the pipettes were filled with internal solution containing (in mM): 110 CsF, 10 NaCl, 5 MgCl2, 11 EGTA, 10 HEPES, pH adjusted to 7.4 with CsOH. Osmolality was set with a difference of 15-20 mmol/kg between external and internal solutions (lower inside the cell). Drugs and intervening wash-outs were applied through a linear array of flow pipes (Drummond Microcaps, 2-μl, 64-mm length). Compounds are dissolved in dimethylsulfoxide (DMSO) to make a […] stock solution, which was subsequently diluted into the external solution to give final concentrations of 0.1-100 μM. At the highest (1%) concentration, DMSO inhibited the size of Na^+ current only slightly. Currents were recorded at room temperature (22-25° C.), filtered at 5 kHz with an active 8-pole Bessel filter (Frequency Devices, Haverhill, Mass.), digitized at 10-50-μs intervals, and stored using Digidata 1200 analog/digital interface with Pclamp6/Clampex software (Axon Instruments).Series resistance was cancelled typically by ~75% when necessary. The inhibitory potency of drugs was assessed by measuring reductions in the peak amplitude of Na^+ currents induced by increasing concentrations of compounds tested. Na^+ currents were elicited by stepping membrane voltage from holding potentials over the range -100 mV to -50 mV, to a pulse potential of -10 mV. The test pulse duration was 5-10 msec, repeated at a frequency ≤1 Hz. Concentration-inhibition curves were fitted with equation 1:
I/Icontrol =1/(1+([compound]/IC50)) Eq. 1 […]
Background: Patch clamp records ionic current or voltage across a cell membrane.

Experiment [2] relates to global and focal ischemia. The settings on record: animal models of global and focal ischemia; cited from earlier work.
Another experiment has as its system ALS. The conditions noted are these: subset of patients with ALS; cited from earlier work.
Where [3] appears, read: HEK-293 cells stably expressing hSkM1.

Read-outs that look alike come from different tables or passages of the source.

T1 sequence (P35499 whole entry): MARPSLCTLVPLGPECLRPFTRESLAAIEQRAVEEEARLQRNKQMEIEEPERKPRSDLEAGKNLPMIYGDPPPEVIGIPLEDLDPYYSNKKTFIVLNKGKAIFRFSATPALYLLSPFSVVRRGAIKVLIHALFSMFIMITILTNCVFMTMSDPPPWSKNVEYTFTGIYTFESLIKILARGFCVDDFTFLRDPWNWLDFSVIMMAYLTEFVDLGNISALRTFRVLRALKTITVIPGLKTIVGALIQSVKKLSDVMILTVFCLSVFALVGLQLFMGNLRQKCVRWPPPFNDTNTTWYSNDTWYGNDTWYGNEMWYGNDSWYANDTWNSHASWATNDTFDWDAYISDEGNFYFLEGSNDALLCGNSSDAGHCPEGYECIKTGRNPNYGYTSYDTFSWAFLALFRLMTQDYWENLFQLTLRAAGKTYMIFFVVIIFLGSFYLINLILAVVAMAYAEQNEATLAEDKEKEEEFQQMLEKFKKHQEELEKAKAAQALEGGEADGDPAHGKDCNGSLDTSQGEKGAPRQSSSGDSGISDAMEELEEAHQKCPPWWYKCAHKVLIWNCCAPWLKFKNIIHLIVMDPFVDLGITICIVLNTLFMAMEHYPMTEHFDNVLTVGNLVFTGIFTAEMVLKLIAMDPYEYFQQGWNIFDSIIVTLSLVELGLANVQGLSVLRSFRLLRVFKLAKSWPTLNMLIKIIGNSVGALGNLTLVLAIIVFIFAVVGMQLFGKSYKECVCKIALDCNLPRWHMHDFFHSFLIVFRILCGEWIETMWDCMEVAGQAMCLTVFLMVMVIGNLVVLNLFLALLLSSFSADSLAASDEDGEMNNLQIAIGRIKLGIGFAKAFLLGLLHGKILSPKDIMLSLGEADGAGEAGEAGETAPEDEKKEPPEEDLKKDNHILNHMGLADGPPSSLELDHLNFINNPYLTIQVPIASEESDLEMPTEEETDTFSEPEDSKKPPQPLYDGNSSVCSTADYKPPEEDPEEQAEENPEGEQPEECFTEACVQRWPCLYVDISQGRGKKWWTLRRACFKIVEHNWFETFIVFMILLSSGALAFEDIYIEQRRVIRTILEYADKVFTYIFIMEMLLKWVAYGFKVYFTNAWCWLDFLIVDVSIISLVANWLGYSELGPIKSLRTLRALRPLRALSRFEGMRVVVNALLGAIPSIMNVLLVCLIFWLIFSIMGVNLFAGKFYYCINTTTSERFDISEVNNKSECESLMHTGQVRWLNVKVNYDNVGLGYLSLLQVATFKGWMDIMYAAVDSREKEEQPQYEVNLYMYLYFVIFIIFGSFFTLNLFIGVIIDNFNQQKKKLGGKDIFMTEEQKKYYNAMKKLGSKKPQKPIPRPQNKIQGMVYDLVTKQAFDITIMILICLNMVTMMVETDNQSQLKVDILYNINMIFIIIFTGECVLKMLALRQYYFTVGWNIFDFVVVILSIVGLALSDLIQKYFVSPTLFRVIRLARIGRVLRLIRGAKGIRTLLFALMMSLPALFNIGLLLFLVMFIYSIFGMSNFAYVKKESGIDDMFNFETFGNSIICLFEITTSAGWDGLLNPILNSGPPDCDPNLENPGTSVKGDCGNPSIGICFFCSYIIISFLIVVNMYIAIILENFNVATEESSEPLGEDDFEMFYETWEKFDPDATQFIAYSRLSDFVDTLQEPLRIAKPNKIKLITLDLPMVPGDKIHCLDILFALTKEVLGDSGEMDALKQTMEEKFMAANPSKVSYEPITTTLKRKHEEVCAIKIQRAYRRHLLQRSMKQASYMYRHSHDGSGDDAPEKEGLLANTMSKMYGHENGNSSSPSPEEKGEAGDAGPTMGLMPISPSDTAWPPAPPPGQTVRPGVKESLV

`NC(=O)NNCc1ccc(Oc2ccc(F)cc2)c(F)c1` [1-[3-Fluoro-4-(4-fluorophenoxy)benzyl]semicarbazide]: the ED50 in experiment [1] (po, read-out: ED50 against MES) is 3.2 mg/kg. For `NC(=O)NNCc1ccc(Oc2ccc(F)cc2)cc1` [1-[4-(4-Fluorophenoxy)benzyl]semicarbazide], the ED50 in experiment [1] (10 min, iv, 10 min before the test, read-out: ED50 (the dose protecting 50% of animals) against MES) came out at 4.2 mg/kg. On hSkM1 sodium channels (setting [3]), the “inhibition of voltage-gated sodium currents” value is on record as “dose-dependent inhibition” and the “sensitivity of blocking effect on Na+ currents to the holding voltage” value was “highly sensitive to the holding voltage”. Besides, the Kd on hSkM1 sodium channels (inactivated sodium channels, read-out: apparent antagonist dissociation constant (Kd) for inactivated sodium channels) is approximately 7.5 µM. On hSkM1 sodium channels (resting states), the “potency towards Na+ channels in their resting states” value was “weak potency”. For `CN1CCN(c2ncc(-c3cc(Cl)cc(Cl)c3Cl)c(N)n2)CC1` [BW619C89], in experiment [2], the neuroprotective activity entry was “neuroprotective”. With `Cc1ccc(-c2nc(C)c(CN3CCN(C(c4ccccc4)c4ccccc4)CC3)[nH]2)cc1` [lifarizine], the neuroprotective activity result in experiment [2] is “neuroprotective”. Regarding `Nc1nc2ccc(OC(F)(F)F)cc2s1` [riluzole], in the experiment with ALS, the survival result is reported as “prolong survival”.

A word on the ED50: it is the dose at which the effect has come halfway, by size or by number of responders.
